In ChEMBL document CHEMBL1152699, “Taste-guided identification of high potency TRPA1 agonists from Perilla frutescens” (Bioorg Med Chem, 2009):
Activity calls are given as the source filed them. The rule behind the calls is not given here.

What was measured:
Format in all cases: functional, cell-based
[1] = molecular target: Transient receptor potential cation channel subfamily M member 8 (Rattus norvegicus) (UniProt Q8R455); assay: Antagonist activity at rat recombinant TRPM8 receptor expressed in HEK293 cells assessed as inhibition of icilin-induced increase in intracellular calcium concentration at 200 uM preincubated for 5 mins before icilin treatment by fluorimetric test
[2] = molecular target: Transient receptor potential cation channel subfamily A member 1 (Rattus norvegicus, UniProt Q6RI86); assay: Agonist activity at rat recombinant TRPA1 receptor expressed in HEK293 cells assessed as increase in intracellular calcium concentration by fluorimetric test
[3] = molecular target: Transient receptor potential cation channel subfamily M member 8 (Rattus norvegicus) (UniProt Q8R455); assay: Antagonist activity at rat recombinant TRPM8 receptor expressed in HEK293 cells assessed as inhibition of icilin-induced increase in intracellular calcium concentration at 200 uM preincubated […] before icilin treatment by fluorimetric test
[4] = molecular target: Transient receptor potential cation channel subfamily A member 1 (Rattus norvegicus) (UniProt Q6RI86); assay: Agonist activity at rat recombinant TRPA1 receptor expressed in HEK293 cells assessed as increase in intracellular calcium concentration by fluorimetric test relative to 100 uM allylisothiocyanate
[5] = molecular target: Transient receptor potential cation channel subfamily A member 1 (Rattus norvegicus) (UniProt Q6RI86); assay: Agonist activity at rat recombinant TRPA1 receptor expressed in HEK293 cells assessed as increase in intracellular calcium concentration by fluorimetric test in presence of TRP channel blocker ruthenium red
[6] = molecular target: Transient receptor potential cation channel subfamily A member 1 (Rattus norvegicus) (UniProt Q6RI86); assay: Antagonist activity at rat recombinant TRPA1 receptor expressed in HEK293 cells assessed as inhibition of allylisothiocyanate-induced increase in intracellular calcium concentration preincubated for 5 mins by fluorimetric test
[7] = molecular target: Transient receptor potential cation channel subfamily M member 8 (Rattus norvegicus) (UniProt Q8R455); assay: (§1) Agonist activity at rat recombinant TRPM8 receptor expressed in HEK293 cells assessed as increase in intracellular calcium concentration by fluorimetric test
[8] = molecular target: Transient receptor potential cation channel subfamily M member 8 (Rattus norvegicus, UniProt Q8R455); assay: as §1
Sequence of Transient receptor potential cation channel subfamily M member 8 (Q8R455 whole entry): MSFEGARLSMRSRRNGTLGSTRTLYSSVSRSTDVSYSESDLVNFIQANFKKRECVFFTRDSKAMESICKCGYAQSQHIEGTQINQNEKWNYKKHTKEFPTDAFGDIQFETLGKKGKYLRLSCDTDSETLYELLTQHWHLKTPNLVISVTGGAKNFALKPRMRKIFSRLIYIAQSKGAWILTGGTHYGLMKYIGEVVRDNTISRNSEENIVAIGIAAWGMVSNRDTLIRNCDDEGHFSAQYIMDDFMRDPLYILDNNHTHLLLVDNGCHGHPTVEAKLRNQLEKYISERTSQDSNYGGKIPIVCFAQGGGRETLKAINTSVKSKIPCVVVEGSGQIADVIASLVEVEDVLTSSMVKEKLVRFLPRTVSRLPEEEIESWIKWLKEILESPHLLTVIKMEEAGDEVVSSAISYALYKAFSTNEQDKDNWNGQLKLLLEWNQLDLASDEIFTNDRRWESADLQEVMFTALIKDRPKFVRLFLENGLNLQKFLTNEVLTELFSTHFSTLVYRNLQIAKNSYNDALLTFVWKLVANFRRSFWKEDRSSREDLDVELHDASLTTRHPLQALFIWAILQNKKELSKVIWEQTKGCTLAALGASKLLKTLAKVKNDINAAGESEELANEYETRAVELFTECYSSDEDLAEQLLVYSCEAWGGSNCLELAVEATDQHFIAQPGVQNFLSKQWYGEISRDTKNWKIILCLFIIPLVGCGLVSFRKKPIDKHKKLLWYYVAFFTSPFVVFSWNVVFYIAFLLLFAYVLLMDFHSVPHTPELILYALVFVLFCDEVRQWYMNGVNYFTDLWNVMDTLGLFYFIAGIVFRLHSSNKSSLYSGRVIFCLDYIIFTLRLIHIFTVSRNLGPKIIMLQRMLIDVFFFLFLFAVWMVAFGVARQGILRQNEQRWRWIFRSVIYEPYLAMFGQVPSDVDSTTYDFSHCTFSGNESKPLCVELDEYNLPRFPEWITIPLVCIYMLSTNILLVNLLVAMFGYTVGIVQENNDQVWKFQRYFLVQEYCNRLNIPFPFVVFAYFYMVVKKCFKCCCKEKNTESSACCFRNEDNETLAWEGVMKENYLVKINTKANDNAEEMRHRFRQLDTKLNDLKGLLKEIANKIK

Sequence of Transient receptor potential cation channel subfamily A member 1 (Q6RI86 whole entry): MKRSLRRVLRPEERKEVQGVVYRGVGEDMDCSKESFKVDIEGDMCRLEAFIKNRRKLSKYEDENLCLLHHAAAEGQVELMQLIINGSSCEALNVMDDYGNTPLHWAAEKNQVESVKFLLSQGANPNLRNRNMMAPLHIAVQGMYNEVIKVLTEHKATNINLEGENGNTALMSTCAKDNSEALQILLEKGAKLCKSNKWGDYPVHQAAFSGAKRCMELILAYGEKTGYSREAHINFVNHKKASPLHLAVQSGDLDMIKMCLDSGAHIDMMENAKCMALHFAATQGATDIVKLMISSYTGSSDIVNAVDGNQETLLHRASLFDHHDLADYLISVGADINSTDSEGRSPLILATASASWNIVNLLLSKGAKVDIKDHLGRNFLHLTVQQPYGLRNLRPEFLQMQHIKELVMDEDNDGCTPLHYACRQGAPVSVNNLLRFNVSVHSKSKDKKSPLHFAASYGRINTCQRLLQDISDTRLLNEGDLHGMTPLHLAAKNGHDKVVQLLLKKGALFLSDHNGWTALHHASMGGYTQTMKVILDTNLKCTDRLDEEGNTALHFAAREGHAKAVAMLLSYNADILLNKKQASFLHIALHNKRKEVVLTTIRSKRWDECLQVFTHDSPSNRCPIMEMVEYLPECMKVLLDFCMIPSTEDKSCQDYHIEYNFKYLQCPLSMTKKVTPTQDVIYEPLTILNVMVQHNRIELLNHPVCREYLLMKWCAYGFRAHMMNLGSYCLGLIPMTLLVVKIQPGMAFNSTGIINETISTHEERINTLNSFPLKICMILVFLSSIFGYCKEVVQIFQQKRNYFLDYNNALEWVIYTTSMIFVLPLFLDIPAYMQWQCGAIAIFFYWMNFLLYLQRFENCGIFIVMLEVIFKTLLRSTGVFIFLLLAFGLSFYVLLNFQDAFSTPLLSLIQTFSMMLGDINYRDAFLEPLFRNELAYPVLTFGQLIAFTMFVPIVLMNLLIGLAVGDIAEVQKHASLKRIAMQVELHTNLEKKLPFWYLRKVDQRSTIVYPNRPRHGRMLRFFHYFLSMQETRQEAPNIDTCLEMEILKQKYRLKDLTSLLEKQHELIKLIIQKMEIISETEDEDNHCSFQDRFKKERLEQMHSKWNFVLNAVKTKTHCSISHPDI
Sequence of Transient receptor potential cation channel subfamily A member 1 (Rattus norvegicus) (Q6RI86 whole entry): as above
Sequence of Transient receptor potential cation channel subfamily M member 8 (Rattus norvegicus) (Q8R455 whole entry, looked up): as the sequence (Q8R455 whole entry) above

Compound | inhibition [1] [%] | EC50 ([2]; read-out: EC50) [µM] | EC50 ([2]; read-out: pEC50 (converted)) [µM] | Activity [3] | Efficacy [4] [%] | Activity [5] | Activity [6] | Activity [7] | EC50 [8] [nM]
C=C(C)C1CC=C(C=O)CC1 (stereo not given) [PERILLALDEHYDE] | 64.3 | 41 | 19.5 | Active | 74.6 | inactive |  |  | 
CC(C)CCC(=O)c1ccoc1 [PERILLAKETONE] | 39.3 | 19.7 | 40.7 | Active | 181 | inactive | Active |  | 
O=C1NC(c2cccc([N+](=O)[O-])c2)=CCN1c1ccccc1O [ICILLIN] |  |  |  |  |  |  |  | Dose-dependent effect | 190
